# Assay results reported in patent US20250367173A1, “ECTONUCLEOTIDE PYROPHOSPHATASE-PHOSPHODIESTERASE-1 INHIBITORS AND PHARMACEUTICAL COMPOSITIONS COMPRISING THE SAME” (LigaChem Biosciences Inc., priority 2022, published 2025).
# Tests used:
# ENPP-1 [1] = biological target: T1, ENPP-1 (Homo sapiens, UniProt P22413); assay: ENPP-1 enzyme assay with pNP-TMP substrate; type: biochemical; conditions: 12.5 ng ENPP-1, 720 μM substrate pNP-TMP, pH 9.0, 37° C., 60 minutes, absorbance 405 nm; average IC50
# T1 construct: purchased Biovendor RD172124100
# T1 sequence (P22413 1-925): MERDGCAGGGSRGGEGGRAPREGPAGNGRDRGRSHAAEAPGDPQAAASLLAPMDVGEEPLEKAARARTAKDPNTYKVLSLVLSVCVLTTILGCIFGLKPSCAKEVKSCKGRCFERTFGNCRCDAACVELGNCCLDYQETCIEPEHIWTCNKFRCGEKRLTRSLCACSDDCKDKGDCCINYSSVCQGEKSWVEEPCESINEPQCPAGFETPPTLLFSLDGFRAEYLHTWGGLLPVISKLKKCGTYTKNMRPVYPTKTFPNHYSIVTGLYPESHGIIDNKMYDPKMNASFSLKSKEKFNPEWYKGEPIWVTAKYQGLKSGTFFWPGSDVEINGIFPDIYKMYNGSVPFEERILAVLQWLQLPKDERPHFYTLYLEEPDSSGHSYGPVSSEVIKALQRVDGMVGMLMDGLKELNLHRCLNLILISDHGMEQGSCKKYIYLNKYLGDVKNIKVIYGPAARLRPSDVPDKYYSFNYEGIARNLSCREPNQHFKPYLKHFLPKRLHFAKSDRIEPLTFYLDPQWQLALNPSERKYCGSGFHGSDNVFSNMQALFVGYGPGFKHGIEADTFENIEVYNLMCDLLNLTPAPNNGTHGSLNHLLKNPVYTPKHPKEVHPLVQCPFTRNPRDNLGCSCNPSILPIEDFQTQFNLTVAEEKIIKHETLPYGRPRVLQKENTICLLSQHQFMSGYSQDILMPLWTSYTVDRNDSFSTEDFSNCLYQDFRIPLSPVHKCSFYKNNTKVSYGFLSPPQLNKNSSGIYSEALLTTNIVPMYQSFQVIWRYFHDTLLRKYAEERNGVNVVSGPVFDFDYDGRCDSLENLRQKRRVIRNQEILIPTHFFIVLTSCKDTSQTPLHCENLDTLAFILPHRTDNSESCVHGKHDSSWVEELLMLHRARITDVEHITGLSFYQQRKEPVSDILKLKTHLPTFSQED
# Experimental: In order to measure the ENPP-1 inhibitory activity of the compounds according to the present disclosure, the following tests were performed.
# ENPP-1 hydrolyzes a variety of substrates, including phosphodiester bonds of nucleotides and nucleotide sugars and pyrophosphate bonds of nucleotides and nucleotide sugars. p-Nitrophenyl 5′-thymidine monophosphate (p-Nph-5′-TMP) is an artificial substrate for 5′-adenosine monophosphate (AMP), which is hydrolyzed by the human recombinant ENPP-1 enzyme. In the above reaction, ENPP-1 enzymatic activity is monitored through the formation of yellow p-nitrophenolate, which absorbs at 405 nm.
# First, the reaction mixture contains 100 mM Tris-HCl (pH 9.0), 150 mM NaCl, […], and 1% DMSO. Serially diluted ENPP-1 inhibitors (test compound concentrations ranging from 10 μM to 0.5 nM) are reacted with 12.5 ng of ENPP-1 (Biovendor, catalog number RD172124100) and 720 μM substrate pNP-TMP at 37° C. for 60 minutes. All assays include a DMSO control without ENPP-1 inhibitor that gives maximum absorbance.
# (§1) After 60 minutes of this reaction, the […] is measured using an Epoch™ Microplate Spectrophotometer (BioTek Instruments Inc.). Inhibition (%) is calculated using the following formula: Sample OD405 nm/Max OD405 nm×100%. % residual ENPP-1 enzyme activity versus IC50 values for ENPP-1 inhibitor concentrations were determined by fitting inhibition curves using the 4-parameter method of GraphPad Prism® software [GraphPad version 9.3.1 for Windows, GraphPad Software, La Jolla California USA, www.graphpad.com].
# ENPP-1 [2] = biological target: T1, ENPP-1; assay: ENPP-1 enzyme assay with cGAMP substrate; type: biochemical; conditions: 200 pM ENPP-1, 10 μM substrate 2′3′-cGAMP, pH 7.4, 37° C., 30 minutes, Transcreener AMP2/GMP2 kit; average IC50
# Experimental: 2′3′-cGAMP is a natural substrate specifically hydrolyzed by ENPP-1, and produces 5′-adenosine monophosphate (AMP) and 5′-guanosine monophosphate (GMP). AMP and GMP produced from the reaction are monitored for ENPP-1 enzyme activity through an AMP^2/GMP^2 ENPP-1 Assay kit (Bellbrook Labs, catalog number 3015).
# First, the reaction mixture contains 25 mM Tris-HCl (pH 7.4), 5 mM MgCl2, 0.01% Brij-35, and 1% DMSO. Serially diluted ENPP-1 inhibitors (test compound concentrations ranging from 10 μM to 0.5 nM) are reacted with 200 pM ENPP-1 (Biovendor, catalog number RD172124100) and 10 μM substrate 2′3′-cGAMP at 37° C. for 30 minutes. All assays include a DMSO control without ENPP-1 inhibitor that provides maximal AMP and GMP production. After 30 minutes of this reaction, AMP and GMP production is detected as a measure of ENPP-1 enzymatic activity using the Transcreener® AMP^2/GMP^2 ENPP-1 Assay kit. The detection reagent is a reagent containing 16 nM AMP^2/GMP^2 Antibody-Tb, 25 mM Tris-HCl and 60.1 nM AMP/GMP HiLyte647 Tracer, which is added by 5 μl, mixed well, and incubated at 25° C. for 2 hours.
# as §1, with “The” for “After 60 minutes of this reaction, the”, “a SPARK Cyto plate reader (Tecan).” for “an Epoch™ Microplate Spectrophotometer (BioTek Instruments Inc.).”, “(Max 615:665 ratio-615:665 ratio)/Max 615:665 ratio×100%.” for “Sample OD405 nm/Max OD405 nm×100%.”
SMILES,IC50 (ENPP-1 [1]),IC50 (ENPP-1 [2])
"COc1ccc2c(c1)c1ncccc1n2Cc1ccc(P(=O)(O)O)cc1 [Compound 13, (4-((8-methoxy-5H-pyrido[3,2-b]indol-5-yl)methyl)phenyl)phosphonic acid]",< 1000 nM,< 1000 nM
"COc1ccc2c(c1)c1ncccc1n2Cc1ccc(CP(=O)(O)O)cc1 [Compound 14, (4-((8-methoxy-5H-pyrido[3,2-b]indol-5-yl)methyl)benzyl)phosphonic acid]",< 1000 nM,< 1000 nM
"COc1ccc2c(c1)c1ncccc1n2Cc1ccc(S(N)(=O)=O)cc1F [Compound 15, 3-fluoro-4-((8-methoxy-5H-pyrido[3,2-b]indol-5-yl)methyl)benzenesulfonamide]",< 1000 nM,< 1000 nM
"COc1ccc2c(c1)c1ncccc1n2Cc1ccc(S(N)(=O)=O)cc1Cl [Compound 16, 3-chloro-4-((8-methoxy-5H-pyrido[3,2-b]indol-5-yl)methyl)benzenesulfonamide]",< 1000 nM,< 1000 nM
"COc1ccc2c(c1)c1ncccc1n2Cc1ccc(S(C)(=N)=O)cc1F (stereo not shown) [Compound 17, (3-fluoro-4-((8-methoxy-5H-pyrido[3,2-b]indol-5-yl)methyl)phenyl)(imino)(methyl)-l6-sulfanone]",< 1000 nM,< 1000 nM
"COc1ccc2c(c1)c1ncccc1n2Cc1ccc(S(C)(=N)=O)cc1C (stereo not shown) [Compound 18, imino (4-((8-methoxy-5H-pyrido[3,2-b]indol-5-yl)methyl)-3-methylphenyl)(methyl)-l6-sulfanone]",< 1000 nM,< 1000 nM
"COc1ccc2c(c1)c1ncccc1n2Cc1ccc(S(C)(=N)=O)cc1OC (stereo not shown) [Compound 19, imino (3-methoxy-4-((8-methoxy-5H-pyrido[3,2-b]indol-5-yl)methyl)phenyl)(methyl)-l6-sulfanone]",< 1000 nM,< 1000 nM
"COc1ccc2c(c1)c1ncccc1n2Cc1ccc(S(C)(=N)=O)c(F)c1 (stereo not shown) [Compound 20, (2-fluoro-4-((8-methoxy-5H-pyrido[3,2-b]indol-5-yl)methyl)phenyl)(imino)(methyl)-l6-sulfanone]",< 1000 nM,< 1000 nM
"NS(=O)(=O)c1ccc(Cn2c3ccc(Cl)cc3c3ncccc32)cc1 [Compound 21, 4-((8-chloro-5H-pyrido[3,2-b]indol-5-yl)methyl)benzenesulfonamide]",< 1000 nM,< 1000 nM
"NS(=O)(=O)c1ccc(Cn2c3ccc(OC(F)(F)F)cc3c3ncccc32)cc1 [Compound 22, 4-((8-(trifluoromethoxy)-5H-pyrido[3,2-b]indol-5-yl)methyl)benzenesulfonamide]",< 1000 nM,1000 to 10000 nM
"Cc1ccc2c(c1)c1ncccc1n2Cc1ccc(S(C)(=N)=O)cc1 (stereo not shown) [Compound 23, imino(methyl) (4-((8-methyl-5H-pyrido[3,2-b]indol-5-yl)methyl)phenyl)-l6-sulfanone]",< 1000 nM,< 1000 nM
"CCOc1ccc2c(c1)c1ncccc1n2Cc1ccc(S(C)(=N)=O)cc1 (stereo not shown) [Compound 24, (4-((8-ethoxy-5H-pyrido[3,2-b]indol-5-yl)methyl)phenyl)(imino)(methyl)-l6-sulfanone]",1000 to 10000 nM,< 1000 nM
"COc1cc(F)c2c(c1)c1ncccc1n2Cc1ccc(S(N)(=O)=O)cc1 [Compound 25, 4-((6-fluoro-8-methoxy-5H-pyrido[3,2-b]indol-5-yl)methyl)benzenesulfonamide]",< 1000 nM,1000 to 10000 nM
"COc1cc(C)c2c(c1)c1ncccc1n2Cc1ccc(S(N)(=O)=O)cc1 [Compound 26, 4-((8-methoxy-6-methyl-5H-pyrido[3,2-b]indol-5-yl)methyl)benzenesulfonamide]",< 1000 nM,< 1000 nM
"COc1cc(Cl)c2c(c1)c1ncccc1n2Cc1ccc(S(N)(=O)=O)cc1 [Compound 27, 4-((6-chloro-8-methoxy-5H-pyrido[3,2-b]indol-5-yl)methyl)benzenesulfonamide]",< 1000 nM,1000 to 10000 nM
"COc1cc2c3ncccc3n(Cc3ccc(S(N)(=O)=O)cc3)c2cc1OC [Compound 28, 4-((7,8-dimethoxy-5H-pyrido[3,2-b]indol-5-yl)methyl)benzenesulfonamide]",< 1000 nM,< 1000 nM
"COc1cc2c3ncccc3n(Cc3ccc(S(N)(=O)=O)cc3)c2cc1F [Compound 29, 4-((7-fluoro-8-methoxy-5H-pyrido[3,2-b]indol-5-yl)methyl)benzenesulfonamide]",< 1000 nM,< 1000 nM
"COc1cc2c3ncccc3n(Cc3ccc(S(C)(=N)=O)cc3F)c2cc1F (stereo not shown) [Compound 31, (3-fluoro-4-((7-fluoro-8-methoxy-5H-pyrido[3,2-b]indol-5-yl)methyl)phenyl)(imino)(methyl)-l6-sulfanone]",< 1000 nM,< 1000 nM
"COc1cc2c(cc1F)c1ncccc1n2Cc1ccc(S(C)(=N)=O)cc1 (stereo not shown) [Compound 32, (4-((8-fluoro-7-methoxy-5H-pyrido[3,2-b]indol-5-yl)methyl)phenyl)(imino)(methyl)-l6-sulfanone]",< 1000 nM,< 1000 nM
"COc1cnc2c(c1)c1c(n2Cc2ccc(S(N)(=O)=O)cc2)CNCC1 [Compound 34, 4-((3-methoxy-5,6,7,8-tetrahydro-9H-pyrrolo[2,3-b:5,4-c′]dipyridin-9-yl)methyl)benzene sulfonamide]",> 10000 nM,> 10000 nM
"COc1ccc2c3c(n(Cc4ccc(S(N)(=O)=O)cc4)c2c1)CCNC3 [Compound 35, 4-((7-methoxy-1,2,3,4-tetrahydro-5H-pyrido[4,3-b]indol-5-yl)methyl)benzenesulfonamide]",< 1000 nM,1000 to 10000 nM
"COc1ccc2c(c1)c1c(n2Cc2ccc(S(N)(=O)=O)cc2)CCNC1 [Compound 36, 4-((8-methoxy-1,2,3,4-tetrahydro-5H-pyrido[4,3-b]indol-5-yl)methyl)benzenesulfonamide]",1000 to 10000 nM,> 10000 nM
"COc1ccc2c3c(n(Cc4ccc(S(N)(=O)=O)cc4)c2c1)CCCN3 [Compound 37, 4-((7-methoxy-1,2,3,4-tetrahydro-5H-pyrido[3,2-b]indol-5-yl)methyl)benzenesulfonamide]",< 1000 nM,> 10000 nM
